{"source": "patent US20120252852A1", "about": "(SANOFI, priority 2011, published 2012)", "key": {"[1]": {"assay": "Level of impurities in dependency on pH and repeated autoclaving (1 mg/mL Otamixaban, citrate composition of Example 5, HPLC)", "format": "physicochemical", "protocol": "The appropriate pH value was adjusted by using sodium hydroxide solution (1 M sodium hydroxide) or diluted hydrochloric acid (1 M hydrochloric acid). […] [table] […] The mobile phase was filtered through a 1.5 μm filter. Typically, add 500 mL of mobile phase A to 500 mL of acetonitrile. Mix and degas. [table] [table]"}, "[2]": {"assay": "Level of impurities in dependency on Otamixaban concentration and autoclaving (HPLC)", "format": "physicochemical", "protocol": "Liquid pharmaceutical compositions were prepared containing 1, 5 or 50 mg/mL\nThe appropriate pH value was adjusted by using sodium hydroxide solution (1 M sodium hydroxide) or diluted hydrochloric acid (1 M hydrochloric acid)."}, "[3]": {"conditions": "repeated autoclaving, pH 2.5 to 4.7"}}, "data": [{"smiles": "COC(=O)[C@H](Cc1cccc(C(=N)N)c1)[C@@H](C)NC(=O)c1ccc(-c2cc[n+]([O-])cc2)cc1", "note": "(mixture of isomers) [Otamixaban, Methyl (2R,3R)-2-{3-[amino(imino)methyl]benzyl}-3-{[4-(1-oxidopyridin-4-yl)benzoyl]amino}butanoate]", "values": [{"measurement": "Increase of Formula III (carbamoyl-benzyl butyric acid methyl ester)", "setting": "[1]; pH 2.5, 0 autoclaving", "value": 0.39, "unit": "%"}, {"measurement": "Increase of Formula III (carbamoyl-benzyl butyric acid methyl ester)", "setting": "[1]; pH 2.5, 1 autoclaving", "value": 0.71, "unit": "%"}, {"measurement": "Increase of Formula III (carbamoyl-benzyl butyric acid methyl ester)", "setting": "[1]; pH 2.5, 2 autoclaving", "value": 1.02, "unit": "%"}, {"measurement": "Increase of Formula III (carbamoyl-benzyl butyric acid methyl ester)", "setting": "[1]; pH 2.5, 3 autoclaving", "value": 1.32, "unit": "%"}, {"measurement": "Increase of Formula III (carbamoyl-benzyl butyric acid methyl ester)", "setting": "[1]; pH 3.0, 0 autoclaving", "value": 0.39, "unit": "%"}, {"measurement": "Increase of Formula III (carbamoyl-benzyl butyric acid methyl ester)", "setting": "[1]; pH 3.0, 1 autoclaving", "value": 0.74, "unit": "%"}, {"measurement": "Increase of Formula III (carbamoyl-benzyl butyric acid methyl ester)", "setting": "[1]; pH 3.0, 2 autoclaving", "value": 1.09, "unit": "%"}, {"measurement": "Increase of Formula III (carbamoyl-benzyl butyric acid methyl ester)", "setting": "[1]; pH 3.0, 3 autoclaving", "value": 1.43, "unit": "%"}, {"measurement": "Increase of Formula III (carbamoyl-benzyl butyric acid methyl ester)", "setting": "[1]; pH 3.2, 0 autoclaving", "value": 0.39, "unit": "%"}, {"measurement": "Increase of Formula III (carbamoyl-benzyl butyric acid methyl ester)", "setting": "[1]; pH 3.2, 1 autoclaving", "value": 0.76, "unit": "%"}, {"measurement": "Increase of Formula III (carbamoyl-benzyl butyric acid methyl ester)", "setting": "[1]; pH 3.2, 2 autoclaving", "value": 1.13, "unit": "%"}, {"measurement": "Increase of Formula III (carbamoyl-benzyl butyric acid methyl ester)", "setting": "[1]; pH 3.2, 3 autoclaving", "value": 1.50, "unit": "%"}, {"measurement": "Increase of Formula III (carbamoyl-benzyl butyric acid methyl ester)", "setting": "[1]; pH 3.5, 0 autoclaving", "value": 0.39, "unit": "%"}, {"measurement": "Increase of Formula III (carbamoyl-benzyl butyric acid methyl ester)", "setting": "[1]; pH 3.5, 1 autoclaving", "value": 0.81, "unit": "%"}, {"measurement": "Increase of Formula III (carbamoyl-benzyl butyric acid methyl ester)", "setting": "[1]; pH 3.5, 2 autoclaving", "value": 1.23, "unit": "%"}, {"measurement": "Increase of Formula III (carbamoyl-benzyl butyric acid methyl ester)", "setting": "[1]; pH 3.5, 3 autoclaving", "value": 1.65, "unit": "%"}, {"measurement": "Increase of Formula III (carbamoyl-benzyl butyric acid methyl ester)", "setting": "[1]; pH 3.7 (first row), 0 autoclaving", "value": 0.39, "unit": "%"}, {"measurement": "Increase of Formula III (carbamoyl-benzyl butyric acid methyl ester)", "setting": "[1]; pH 3.7 (first row), 1 autoclaving", "value": 0.87, "unit": "%"}, {"measurement": "Increase of Formula III (carbamoyl-benzyl butyric acid methyl ester)", "setting": "[1]; pH 3.7 (first row), 2 autoclaving", "value": 1.33, "unit": "%"}, {"measurement": "Increase of Formula III (carbamoyl-benzyl butyric acid methyl ester)", "setting": "[1]; pH 3.7 (first row), 3 autoclaving", "value": 1.80, "unit": "%"}, {"measurement": "Increase of Formula III (carbamoyl-benzyl butyric acid methyl ester)", "setting": "[1]; pH 3.7 (second row), 0 autoclaving", "value": 0.39, "unit": "%"}, {"measurement": "Increase of Formula III (carbamoyl-benzyl butyric acid methyl ester)", "setting": "[1]; pH 3.7 (second row), 1 autoclaving", "value": 0.84, "unit": "%"}, {"measurement": "Increase of Formula III (carbamoyl-benzyl butyric acid methyl ester)", "setting": "[1]; pH 3.7 (second row), 2 autoclaving", "value": 1.28, "unit": "%"}, {"measurement": "Increase of Formula III (carbamoyl-benzyl butyric acid methyl ester)", "setting": "[1]; pH 3.7 (second row), 3 autoclaving", "value": 1.71, "unit": "%"}, {"measurement": "Increase of Formula III (carbamoyl-benzyl butyric acid methyl ester)", "setting": "[1]; pH 4.0, 0 autoclaving", "value": 0.39, "unit": "%"}, {"measurement": "Increase of Formula III (carbamoyl-benzyl butyric acid methyl ester)", "setting": "[1]; pH 4.0, 1 autoclaving", "value": 0.95, "unit": "%"}, {"measurement": "Increase of Formula III (carbamoyl-benzyl butyric acid methyl ester)", "setting": "[1]; pH 4.0, 2 autoclaving", "value": 1.48, "unit": "%"}, {"measurement": "Increase of Formula III (carbamoyl-benzyl butyric acid methyl ester)", "setting": "[1]; pH 4.0, 3 autoclaving", "value": 2.02, "unit": "%"}, {"measurement": "Increase of Formula III (carbamoyl-benzyl butyric acid methyl ester)", "setting": "[1]; pH 4.2, 0 autoclaving", "value": 0.39, "unit": "%"}, {"measurement": "Increase of Formula III (carbamoyl-benzyl butyric acid methyl ester)", "setting": "[1]; pH 4.2, 1 autoclaving", "value": 1.08, "unit": "%"}, {"measurement": "Increase of Formula III (carbamoyl-benzyl butyric acid methyl ester)", "setting": "[1]; pH 4.2, 2 autoclaving", "value": 1.75, "unit": "%"}, {"measurement": "Increase of Formula III (carbamoyl-benzyl butyric acid methyl ester)", "setting": "[1]; pH 4.2, 3 autoclaving", "value": 2.42, "unit": "%"}, {"measurement": "Increase of Formula III (carbamoyl-benzyl butyric acid methyl ester)", "setting": "[1]; pH 4.5, 0 autoclaving", "value": 0.39, "unit": "%"}, {"measurement": "Increase of Formula III (carbamoyl-benzyl butyric acid methyl ester)", "setting": "[1]; pH 4.5, 1 autoclaving", "value": 1.40, "unit": "%"}, {"measurement": "Increase of Formula III (carbamoyl-benzyl butyric acid methyl ester)", "setting": "[1]; pH 4.5, 2 autoclaving", "value": 2.37, "unit": "%"}, {"measurement": "Increase of Formula III (carbamoyl-benzyl butyric acid methyl ester)", "setting": "[1]; pH 4.5, 3 autoclaving", "value": 3.36, "unit": "%"}, {"measurement": "Increase of Formula III (carbamoyl-benzyl butyric acid methyl ester)", "setting": "[1]; pH 4.7, 0 autoclaving", "value": 0.39, "unit": "%"}, {"measurement": "Increase of Formula III (carbamoyl-benzyl butyric acid methyl ester)", "setting": "[1]; pH 4.7, 1 autoclaving", "value": 1.84, "unit": "%"}, {"measurement": "Increase of Formula III (carbamoyl-benzyl butyric acid methyl ester)", "setting": "[1]; pH 4.7, 2 autoclaving", "value": 3.20, "unit": "%"}, {"measurement": "Increase of Formula III (carbamoyl-benzyl butyric acid methyl ester)", "setting": "[1]; pH 4.7, 3 autoclaving", "value": 4.58, "unit": "%"}, {"measurement": "Levels of Formula II (carbamimidoyl acid) versus pH", "setting": "[1]; [3]", "value": "minimum at pH 4"}, {"measurement": "Levels of Formula III (carbamoyl methyl ester) versus pH", "setting": "[1]; [3]", "value": "lowest at the lowest pH"}, {"measurement": "Increase of Formula III (carbamoyl-benzyl butyric acid methyl ester)", "setting": "[2]; pH 4.2-4.3, 5 mg/mL, vial 5 mL, 20 min 123° C., 0 autoclaving", "value": 0.2, "unit": "%"}, {"measurement": "Increase of Formula III (carbamoyl-benzyl butyric acid methyl ester)", "setting": "[2]; pH 4.2-4.3, 5 mg/mL, vial 5 mL, 20 min 123° C., 1 autoclaving", "value": 0.9, "unit": "%"}, {"measurement": "Increase of Formula III (carbamoyl-benzyl butyric acid methyl ester)", "setting": "[2]; pH 4.2-4.3, 5 mg/mL, vial 5 mL, 20 min 123° C., 2 autoclaving", "value": 1.7, "unit": "%"}, {"measurement": "Increase of Formula III (carbamoyl-benzyl butyric acid methyl ester)", "setting": "[2]; pH 4.2-4.3, 5 mg/mL, vial 5 mL, 20 min 123° C., 3 autoclaving", "value": 2.5, "unit": "%"}, {"measurement": "Increase of Formula III (carbamoyl-benzyl butyric acid methyl ester)", "setting": "[2]; pH 4.2, 1 mg/mL, vial 50 mL, 20 min […] C., 0 autoclaving", "value": 0.4, "unit": "%"}, {"measurement": "Increase of Formula III (carbamoyl-benzyl butyric acid methyl ester)", "setting": "[2]; pH 4.2, 1 mg/mL, vial 50 mL, 20 min […] C., 1 autoclaving", "value": 1.3, "unit": "%"}, {"measurement": "Increase of Formula III (carbamoyl-benzyl butyric acid methyl ester)", "setting": "[2]; pH 4.2, 1 mg/mL, vial 50 mL, 20 min […] C., 2 autoclaving", "value": 2.3, "unit": "%"}, {"measurement": "Increase of Formula III (carbamoyl-benzyl butyric acid methyl ester)", "setting": "[2]; pH 4.2, 1 mg/mL, vial 50 mL, 25 min 125° C., 0 autoclaving", "value": 0.4, "unit": "%"}, {"measurement": "Increase of Formula III (carbamoyl-benzyl butyric acid methyl ester)", "setting": "[2]; pH 4.2, 1 mg/mL, vial 50 mL, 25 min 125° C., 1 autoclaving", "value": 1.3, "unit": "%"}, {"measurement": "Increase of Formula III (carbamoyl-benzyl butyric acid methyl ester)", "setting": "[2]; pH 4.2, 5 mg/mL, vial 5 mL, 20 min 123° C., 0 autoclaving", "value": 0.3, "unit": "%"}, {"measurement": "Increase of Formula III (carbamoyl-benzyl butyric acid methyl ester)", "setting": "[2]; pH 4.2, 5 mg/mL, vial 5 mL, 20 min 123° C., 1 autoclaving", "value": 1.0, "unit": "%"}, {"measurement": "Increase of Formula III (carbamoyl-benzyl butyric acid methyl ester)", "setting": "[2]; pH 4.2, 5 mg/mL, vial 5 mL, 20 min 123° C., 2 autoclaving", "value": 1.8, "unit": "%"}, {"measurement": "Increase of Formula III (carbamoyl-benzyl butyric acid methyl ester)", "setting": "[2]; pH 4.2, 5 mg/mL, vial 5 mL, 20 min 123° C., 3 autoclaving", "value": 2.6, "unit": "%"}, {"measurement": "Increase of Formula III (carbamoyl-benzyl butyric acid methyl ester)", "setting": "[2]; pH 4.2, 5 mg/mL, vial 50 mL, 25 min 125° C., 0 autoclaving", "value": 0.4, "unit": "%"}, {"measurement": "Increase of Formula III (carbamoyl-benzyl butyric acid methyl ester)", "setting": "[2]; pH 4.2, 5 mg/mL, vial 50 mL, 25 min 125° C., 1 autoclaving", "value": 1.4, "unit": "%"}, {"measurement": "Increase of Formula III (carbamoyl-benzyl butyric acid methyl ester)", "setting": "[2]; pH 4.2, 50 mg/mL, vial 5 mL, 20 min 123° C., 0 autoclaving", "value": 0.3, "unit": "%"}, {"measurement": "Increase of Formula III (carbamoyl-benzyl butyric acid methyl ester)", "setting": "[2]; pH 4.2, 50 mg/mL, vial 5 mL, 20 min 123° C., 1 autoclaving", "value": 1.1, "unit": "%"}, {"measurement": "Increase of Formula III (carbamoyl-benzyl butyric acid methyl ester)", "setting": "[2]; pH 4.2, 50 mg/mL, vial 5 mL, 20 min 123° C., 2 autoclaving", "value": 1.9, "unit": "%"}]}]}
